From PMC467104, “Novel NO-TZDs and trimethoxychalcone-based DHPMs: design, synthesis, and biological evaluation as potential VEGFR-2 inhibitors” (Journal of Enzyme Inhibition and Medicinal Chemistry, 2024)

Target: T1, VEGFR-2 (Homo sapiens, UniProt P35968)
T1 construct: gene KDR
Assay: BPS Bioscience KDR kinase assay (Kinase-Glo Max/ADP-Glo luminescence)
Format: biochemical

T1 sequence (P35968 20-1356): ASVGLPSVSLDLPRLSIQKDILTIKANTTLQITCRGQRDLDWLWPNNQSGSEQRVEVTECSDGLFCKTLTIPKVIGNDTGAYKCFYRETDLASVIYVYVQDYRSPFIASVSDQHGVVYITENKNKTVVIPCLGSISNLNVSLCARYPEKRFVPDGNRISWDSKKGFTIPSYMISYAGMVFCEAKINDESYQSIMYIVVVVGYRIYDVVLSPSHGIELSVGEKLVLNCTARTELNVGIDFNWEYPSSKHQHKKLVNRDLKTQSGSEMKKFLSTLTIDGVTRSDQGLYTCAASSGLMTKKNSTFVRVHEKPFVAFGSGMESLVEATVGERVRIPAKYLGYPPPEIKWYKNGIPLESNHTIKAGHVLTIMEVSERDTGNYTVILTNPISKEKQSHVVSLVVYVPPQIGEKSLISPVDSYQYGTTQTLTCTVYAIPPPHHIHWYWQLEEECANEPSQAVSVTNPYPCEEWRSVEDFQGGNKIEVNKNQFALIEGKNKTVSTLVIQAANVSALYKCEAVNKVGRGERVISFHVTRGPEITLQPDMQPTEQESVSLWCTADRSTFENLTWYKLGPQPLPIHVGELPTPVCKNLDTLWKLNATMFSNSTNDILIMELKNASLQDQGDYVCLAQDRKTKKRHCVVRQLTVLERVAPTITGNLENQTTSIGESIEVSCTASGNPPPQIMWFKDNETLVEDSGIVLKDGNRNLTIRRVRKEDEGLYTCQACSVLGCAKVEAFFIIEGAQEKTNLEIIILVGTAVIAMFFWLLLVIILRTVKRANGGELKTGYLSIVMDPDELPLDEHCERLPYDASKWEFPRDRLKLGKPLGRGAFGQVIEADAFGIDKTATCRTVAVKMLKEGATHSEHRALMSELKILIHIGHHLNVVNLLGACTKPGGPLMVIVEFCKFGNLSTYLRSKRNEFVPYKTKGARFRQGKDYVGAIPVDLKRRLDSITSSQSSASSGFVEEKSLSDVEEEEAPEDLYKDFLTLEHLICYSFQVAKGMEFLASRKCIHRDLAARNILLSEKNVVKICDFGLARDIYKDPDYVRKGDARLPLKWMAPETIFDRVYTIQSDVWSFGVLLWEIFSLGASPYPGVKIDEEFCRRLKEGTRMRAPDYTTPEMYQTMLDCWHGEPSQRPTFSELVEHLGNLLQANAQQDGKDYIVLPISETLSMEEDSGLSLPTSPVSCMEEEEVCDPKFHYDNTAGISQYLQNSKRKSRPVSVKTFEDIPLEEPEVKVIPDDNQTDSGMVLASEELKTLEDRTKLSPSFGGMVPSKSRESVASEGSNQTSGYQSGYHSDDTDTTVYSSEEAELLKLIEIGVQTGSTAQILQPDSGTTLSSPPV

IC50: 112 nM
SMILES: CCOC(=O)C1=C(C)NC(SCC(=O)Nc2ccc(C(=O)/C=C/c3cc(OC)c(OC)c(OC)c3)cc2)=N[C@@H]1c1ccc(O)c(OC)c1 [CDHPM-10e, Ethyl (R,E)-4–(4-hydroxy-3-methoxyphenyl)-6-methyl-2-((2-oxo-2-((4–(3-(3,4,5-trimethoxyphenyl)acryloyl)phenyl)amino)ethyl)thio)-1,4-dihydropyrimidine-5-carboxylate]
